Measured values published in US10111881B2 (priority 2016, dated 2018).
“Also recorded” adds a separate entry of the source. Read-outs that look alike come from different tables or passages of the source.

Columns and labels:
MARV = assay: microbe, parasite or virus in culture; format: cell-based, Marburgvirus (Musoke strain)
EBOV [1] = assay: organism not typed; format: cell-based, Zaire Ebolavirus (Mayinga strain)
EBOV [2] = assay: microbe, parasite or virus in culture; format: cell-based, Zaire Ebolavirus (Mayinga strain)
EBOV [3] = format: cell-based, Zaire Ebolavirus (Mayinga strain)
HeLa cells [4] = format: cell-based, human; details: for Dextran Uptake: 50 μM
HeLa cells [5] = format: cell-based, human; details: for Transferrin uptake: 50 μM
[6] = test system: Baby hamster kidney fibroblasts (BHK) cells; assay: Acridine orange assay for acidification blockers; format: cell-based
Cathepsin = Cathepsin cleavage of GP
NPC1 C-loop = target: T1, NPC1 C-loop (Homo sapiens, UniProt O15118); assay: NPC1 C-loop binding
T1 construct: C-loop
T1 sequence (O15118 372-620 limits assumed): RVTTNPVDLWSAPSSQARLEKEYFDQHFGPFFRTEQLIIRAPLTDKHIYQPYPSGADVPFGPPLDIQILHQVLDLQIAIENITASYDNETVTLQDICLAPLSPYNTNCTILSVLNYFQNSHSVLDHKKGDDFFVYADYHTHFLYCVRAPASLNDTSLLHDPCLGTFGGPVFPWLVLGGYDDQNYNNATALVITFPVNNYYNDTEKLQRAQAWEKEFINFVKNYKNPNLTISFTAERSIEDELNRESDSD

HeLa cells [7] = test system: HeLa cells
IL-1-Beta = details: PubChem / MLSMR data; cited from earlier work
EEA1-positive vesicles = format: cell-based, human
LAMP1-positive vesicles = format: cell-based, human
MDM2/A = MDM2/A (Homo sapiens, UniProt Q00987); details: MLSMR screening network data; cited from earlier work
Chain of MDM2/A (Q00987 whole entry, species assumed): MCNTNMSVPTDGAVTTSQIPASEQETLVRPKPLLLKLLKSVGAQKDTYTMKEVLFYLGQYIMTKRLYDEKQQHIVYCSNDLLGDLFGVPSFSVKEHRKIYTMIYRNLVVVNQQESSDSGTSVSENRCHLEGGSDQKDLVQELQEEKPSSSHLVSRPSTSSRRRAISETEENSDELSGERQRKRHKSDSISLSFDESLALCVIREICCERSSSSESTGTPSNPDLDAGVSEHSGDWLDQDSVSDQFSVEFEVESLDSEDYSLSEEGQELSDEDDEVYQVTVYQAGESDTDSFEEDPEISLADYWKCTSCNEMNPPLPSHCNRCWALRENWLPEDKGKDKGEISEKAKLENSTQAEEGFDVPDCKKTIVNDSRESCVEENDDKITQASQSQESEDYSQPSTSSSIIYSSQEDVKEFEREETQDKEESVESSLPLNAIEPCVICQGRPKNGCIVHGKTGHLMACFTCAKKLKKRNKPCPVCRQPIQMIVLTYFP

MDM4/1 = target: T2, MDM4/1 (Homo sapiens, UniProt O15151); details: MLSMR screening network data; cited from earlier work
T2 sequence (O15151 1-490): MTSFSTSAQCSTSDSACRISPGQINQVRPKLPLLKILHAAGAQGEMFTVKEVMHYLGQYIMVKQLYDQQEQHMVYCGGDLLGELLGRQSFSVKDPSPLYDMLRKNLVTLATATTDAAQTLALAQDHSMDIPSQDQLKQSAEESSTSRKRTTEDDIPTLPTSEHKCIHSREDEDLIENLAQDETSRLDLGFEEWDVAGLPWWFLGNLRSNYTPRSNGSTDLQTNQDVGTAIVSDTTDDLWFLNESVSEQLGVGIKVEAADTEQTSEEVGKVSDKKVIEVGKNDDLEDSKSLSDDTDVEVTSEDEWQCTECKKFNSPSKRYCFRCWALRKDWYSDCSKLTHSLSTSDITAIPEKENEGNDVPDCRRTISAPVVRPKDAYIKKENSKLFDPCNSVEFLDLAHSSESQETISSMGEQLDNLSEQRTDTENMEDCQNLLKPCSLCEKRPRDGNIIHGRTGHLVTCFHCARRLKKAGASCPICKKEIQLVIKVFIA

HeLa cells [8] = format: cell-based, human
[9] = read-out: Activity in macrophages IC50

Compound	Curve class (MARV) (MARV)	MARV (Curve class) (MARV)	Curve Class (EBOV) (EBOV [1])	EBOV (curve class) (EBOV [1])	Surface interaction (EBOV [3])	Uninfected cell number (EBOV [3])	reduction of uptake of fluorescently labeled dextran (HeLa cells [4])	Dextran Uptake (HeLa cells [4])	effect on transferrin uptake (HeLa cells [5])	Transferrin uptake (HeLa cells [5])	Acidification Block [6]	effect on endosomal acidification [6]	Cathepsin clevage (Cathepsin)	NPC1 C-loop binding (NPC1 C-loop)	secretion of IL-1-Beta (IL-1-Beta)	IC50 (MARV; read-out: IC-50 (MARV))	IC50 (MARV; read-out: MARV HeLa IC50)	IC50 (EBOV [1]; read-out: EBOV HeLa IC50)	IC50 (EBOV [1]; read-out: IC-50 (EBOV))	IC50 (EBOV [2]; [9])	also measured
Cc1cc(-c2nn(-c3ccccc3F)cc2CN2CCN(c3ccncc3)CC2)c(C)s1 [MLS000733230, 1-[[3-(2,5-dimethylthiophen-3-yl)-1-(2-fluorophenyl)pyrazol-4-yl]methyl]-4-pyridin-4-ylpiperazine]	1.3	1.3	1.3	1.3	0	0	approximately 91%	−	no effect on transferrin uptake	0	+	affected endosomal acidification	0	0	inhibit secretion of IL-1-Beta						IC50 (MARV; Orthomarburgvirus, HeLa, read-out: IC-50 (MARV)): 11.7 µM; IC50 (MARV; Orthomarburgvirus, HeLa, read-out: MARV HeLa IC50 (μM)): 11.7 µM; potency for Ebolavirus inhibition, times better than EIPA (EBOV [1]): 7 times; EC50 (EBOV [1]; HeLa, read-out: EC50 for Ebolavirus inhibition): 6.7 µM; IC50 (EBOV [1]; Zaire ebolavirus, HeLa, read-out: EBOV HeLa IC50 (μM)): 6.7 µM; IC50 (EBOV [1]; Zaire ebolavirus, HeLa, read-out: IC-50 (EBOV)): 6.7 µM; IC50 (EBOV [2]; Zaire ebolavirus, Macrophage, read-out: Activity in macrophages IC50 (μM)): 4.4 µM; reduction of number of viral particles inside the cell body (EBOV [3]): 91%; toxic concentration (not toxic up to / toxic at) (HeLa cells [7]; human): > 100 µM
CC(C)(C)c1nc2ccccc2c2nnc(SCC(=O)Nc3nccs3)n12 [MLS000555232]	1.3	1.3	1.6	1.6	+	0		0	do not inhibit transferrin uptake	0	−		0	0		6.26 µM	6.3 µM	1.7 µM	1.74 µM	9.4 µM	enhancement of virus interaction with cells (EBOV [3]): 89%; increase in virus particle binding to the cell surface (EBOV [3]): ~2 fold; Effect on EEA1 (EEA1-positive vesicles): −; reduction of colocalization of EBOV VLPs with EEA1-positive vesicles (EEA1-positive vesicles): 77%; Effect on LAMP1 (LAMP1-positive vesicles): −; reduction of number of VLPs present in LAMP1-positive vesicles (LAMP1-positive vesicles): 89%; inhibition of MDM2/A (MDM2/A): identified as inhibitors; inhibition of MDM4/1 (MDM4/1): identified as inhibitors
C=C(c1ccc(O)cc1)c1ccc(O)cc1 [MLS000078751]	1.5	1.5	1.3	1.3	−	+		0		0	−		0	0	inhibit secretion of IL-1-Beta	6.13 µM	6.1 µM	25.6 µM	25.6 µM	~25 µM	decrease in total viral particles bound to cell surface (EBOV [3]): 53%; virus particle uptake (EBOV [3]): reduced particle uptake
CCN(c1nc(N)c(C(=O)NC(=N)N)nc1Cl)C(C)C [EIPA, reference compound]							95%					decreases endosomal acidification									toxic concentration (not toxic up to / toxic at) (HeLa cells [7]): 37 µM
N#Cc1c(NCCN)nc(-c2ccccc2)c2c1CCCC2 [MLS000534476]	1.3	1.3	1.6	1.6	−	+		0		−	+	affected endosomal acidification	0	0		6.21 µM	6.2 µM	24.4 µM	24.4 µM	3.6 µM	decrease in total viral particles bound to cell surface (EBOV [3]): 55%; virus particle uptake (EBOV [3]): reduced particle uptake; decrease in transferrin binding to cells (HeLa cells [8]): > 55%; GP cleavage by cellular proteases (Cathepsin): reduced GP cleavage; inhibition of MDM2/A (MDM2/A): identified as inhibitors; inhibition of MDM4/1 (MDM4/1): identified as inhibitors
Cc1nn2c(NCCCN(C)C)c3c(nc2c1-c1ccccc1)CCCC3 [MLS000762907]	1.3	1.3	1.3	1.3	0	0		0	inhibited transferrin uptake; also recorded: reduced uptake of transferrin; also recorded: blocked uptake of transferrin	−	+		0	0		12.5 µM	12.5 µM	3.2 µM	3.19 µM	23.4 µM	virus particle binding to cell surface (EBOV [3]): did not affect; effect on macropinocytic uptake of dextran (HeLa cells [4]): not of dextran; also recorded: did not affect; Effect on EEA1 (EEA1-positive vesicles): 0; VLP colocalization with EEA1 (EEA1-positive vesicles): colocalized with EEA1 positive vesicles normally; also recorded: no effect; Effect on LAMP1 (LAMP1-positive vesicles): 0; VLP colocalization with LAMP1 (LAMP1-positive vesicles): no effect
Cc1cc(N2CCN(C)CC2)nc2ccc(NC(=S)NCCCN3CCc4ccccc4C3)cc12 [MLS000730532]	1.3	1.3			0	0	~74%	−	impaired uptake of this marker, comparable to chlorpromazine	−	+	affected endosomal acidification	0	0	inhibit secretion of IL-1-Beta	1.93 µM	1.9 µM	1.6 µM	1.56 µM	9.5 µM	reduction of number of viral particles inside the cell body (EBOV [3]): 89%
CC(C)(CS(=O)(=O)[O-])NC(=O)CC[N+](C)(C)CCO [MLS000554255]	1.3	1.3	1.5	1.5	0	+		0	do not inhibit transferrin uptake	0	−		0	0		6.39 µM	6.4 µM	6.8 µM	6.84 µM	6 µM	number of cells without virus bound (EBOV [3]): increased the number of cells without virus bound; Effect on EEA1 (EEA1-positive vesicles): +; increase of colocalization of VLPs with EEA1-positive vesicles (EEA1-positive vesicles): 83%; Effect on LAMP1 (LAMP1-positive vesicles): −; reduction of number of VLPs present in LAMP1-positive vesicles (LAMP1-positive vesicles): 33%
